Results: US5262157A (priority 1988, dated 1993)

Columns and labels:
in vivo [1] = conditions: rat; for Pentamidine concentration, Kidney: aerosol 0.4 mg/kg/day, 24 h after last dose
Procedure: Rats were treated in groups of four. […] Doses in all trials were calculated as above.

[2] = rat, aerosol doses greatly exceeding the therapeutic dose; cited from earlier work
[3] = system: African trypanosomiasis (sleeping sickness); conditions: cited from earlier work
in vivo [4] = test: in vivo
Procedure: The dose was calculated from the product of the concentration of the drug in the chamber, the minute volume of the rats (lung vol.×resp. rate), and the time of exposure. In all experiments exposure time was 15 min, male Sprague-Dawley rats with an average weight of 250 g were used, and the minute volume of the rats was assumed to be 70 ml. Rats were treated in groups of four. […] The aerosol was generated by oxygen flowing at 8 l/min through the nebulizer (Cadema Medical Products, part no. CA 61, Middletown, N.Y.). The drug solution was aerosolized at 0.3 ml/min with an expected mean particle diameter of 0.5-0.8 micron. […] This concentration multiplied by the minute volume and the exposure time gives a dose of 1.0 mg; since the rats weighed 0.25 kg, the dose was 4.0 mg/kg. Doses in all trials were calculated as above.
Four rats were studied at each time.

[5] = cited from earlier work
[6] = Pentamidine tissue concentrations in humans after intravenous infusions; conditions: human, IV 4.0 mg/kg/day
Pneumocystis carinii = conditions: patients with AIDS, IV or IM 4 mg/kg/day, 14-21 days; cited from earlier work
[7] = rat, in vivo, inhaled or intranasal, 4 mg/kg

## N=C(N)c1ccc(OCCCCCOc2ccc(C(=N)N)cc2)cc1 [pentamidine, Pentamidine isethionate]
In vivo [1]; 1 dose
  Pentamidine concentration, Kidney: NMA
In vivo [1]; 2 doses
  Pentamidine concentration, Kidney: NMA
In vivo [1]; 4 doses
  Pentamidine concentration, Kidney: NMA
In vivo [1]; in vivo, inhaled or intranasal, 0.4 mg/kg/day, levels in the lung
  concentration at 24 h: 60500 ng/g
[2]
  toxicity in histopathologic sections from the lungs: No toxicity was seen
[3]; human volunteers, weekly bites from infected tse-tse flies
  resistance to infection after a single IM dose: resisted infection for one year or more
[3]; human
  chemoprophylaxis of African trypanosomiasis: effective in the chemoprophylaxis of African trypanosomiasis
[3]; twice-yearly IV or IM doses, Africa
  elimination of infection in endemic areas: eliminated the infection in endemic areas
In vivo [4]; rat, in vivo, 4 mg/kg
  amount retained per animal: 60 µg
  fraction of inhaled drug retained: about 6.0%
  retained dose: 0.24 mg/kg
In vivo [4]; [7]
  amount of drug retained in the lungs: about 40 mcg/g
  half-life: 36 days
In vivo [4]; single aerosol dose
  retention in the lungs: retained in the lungs for many weeks
[5]; IV or IM
  elimination from blood: eliminated rapidly from blood
[5]; in vivo
  elimination from tissues: eliminated slowly from them
[6]; 1 dose
  Pentamidine concentration, Adrenal: 19 µg/g
  Pentamidine concentration, Kidney: 8.5 µg/g
  Pentamidine concentration, Liver: 35 µg/g
  Pentamidine concentration, Spleen: 40 µg/g
[6]; 2 doses
  Pentamidine concentration, Kidney: 13 µg/g
  Pentamidine concentration, Liver: 23 µg/g
  Pentamidine concentration, Spleen: 40 µg/g
[6]; 5 doses
  Pentamidine concentration, Kidney: 62 µg/g
  Pentamidine concentration, Liver: 112 µg/g
  Pentamidine concentration, Lung: 42 µg/g
  Pentamidine concentration, Spleen: 28 µg/g
[6]; 15 doses
  Pentamidine concentration, Adrenal: 92 µg/g
  Pentamidine concentration, Kidney: 123 µg/g
  Pentamidine concentration, Liver: 300 µg/g
  Pentamidine concentration, Lung: 56 µg/g
  Pentamidine concentration, Spleen: 368 µg/g
Pneumocystis carinii
  treatment of PCP infection: highly effective in treatment of PCP infection
